“And” between values parts separate entries of the source, which are not always exact repeats. Equal entries are not always repeated. Non-standard residues stand in square brackets, D forms with d. Residues, ends and D or L forms follow the SMILES beside them. ξ: configuration not given here. *: point of attachment. ξTHIQ1CO(6-Me) = Cc1ccc2c(c1)CCNC2C(=O)O; X1 = O=C(O)CC(N*)C(=O)COc1c(F)cccc1F; Quinaldoyl = O=C(c1ccc2ccccc2n1)*
Legend:
[1] = molecular target: T1, recombinant human Casp2 (Homo sapiens, UniProt P42575); assay: Enzyme mechanistic studies (Ki, k3, k3/KI), Caspase-2; type: biochemical
T1 sequence (P42575 170-325 limits assumed): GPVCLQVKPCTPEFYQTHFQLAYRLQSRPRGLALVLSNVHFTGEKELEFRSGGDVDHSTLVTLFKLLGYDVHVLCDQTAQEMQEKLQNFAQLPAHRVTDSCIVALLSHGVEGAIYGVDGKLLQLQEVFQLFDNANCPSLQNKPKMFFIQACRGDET
T1 sequence (P42575 348-452 limits assumed): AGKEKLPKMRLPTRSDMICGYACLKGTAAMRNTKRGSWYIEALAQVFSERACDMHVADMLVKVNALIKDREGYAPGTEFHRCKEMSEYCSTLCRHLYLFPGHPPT
Procedure: (§1) For reversible inhibitors, the mechanisms of inhibition were determined by varying substrate and inhibitor concentrations and using Lineweaver−Burk representations to determine the inhibition constants Ki of competitive inhibitors (Ki = [E][I]/[EI]). For suicide inhibitors, inactivation can be represented by the minimum kinetic scheme (Eq. 2), where E and I are the free forms of enzyme and inhibitor, E * I a kinetic chimera of the Michaelis complex and E − I the covalent complex (inactivated enzyme).2 E+I⇄KIE*I→k3E−I
(§2) KI and k3 are the kinetic constants characterizing the inactivation process and the k3/KI ratio is an index of the inhibitory potency. The first-order rate constant, k3, and the apparent dissociation constant, KI, were determined for Caspase-2 and -3 using the progress curve method. Briefly, the enzyme activities were measured continuously for 120 min. To determine the kinetic parameters, progress curves were obtained at several inhibition concentrations using fixed substrate concentration. The product released for each inhibitor concentration was plotted versus the time following Eq. 3 where the constant π depended on [I]’, a modified inhibitor concentration due to substrate competition, according to Eq. 4. [I]’ is defined by Eq. 5, where KM was Michaelis constant for the enzymatic hydrolysis of the appropriate fluorogenic substrate. The ratio k3/KI was obtained by fitting the experimental data to the equations (F.U., fluorescence unit):3 F.U.=∫0tvidt+F.U0−vo×e^−π×t/π+F.U.0 4 π=k3×[I]^′/KI+[I]^′ 5 [I]^′=[I]/1+S/KM
Linear and nonlinear regression fits of the experimental data to the equations were performed with KaleidaGraph software. The experimental conditions were [Caspase-2]0 = 0.2 nM, [Ac-VDVAD-AMC]0 = 25 µM and [Caspase-3]0 = 0.1 nM, [Ac-DEVD-AMC]0 = 10 µM; [I]0 = 0–100 µM.

[2] = molecular target: T2, recombinant human Casp3 (Homo sapiens, UniProt P42574); assay: Enzyme mechanistic studies (Ki, k3, k3/KI), Caspase-3; type: biochemical; conditions: irreversible inhibitors, progress curve method
T2 sequence (P42574 29-175 limits assumed): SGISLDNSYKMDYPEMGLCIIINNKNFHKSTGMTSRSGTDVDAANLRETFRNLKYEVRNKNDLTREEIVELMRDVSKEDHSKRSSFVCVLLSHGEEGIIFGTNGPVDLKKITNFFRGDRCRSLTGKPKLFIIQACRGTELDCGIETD
T2 sequence (P42574 176-277 limits assumed): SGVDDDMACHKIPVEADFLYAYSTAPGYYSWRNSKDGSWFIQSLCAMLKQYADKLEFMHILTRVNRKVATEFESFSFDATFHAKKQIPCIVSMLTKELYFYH
Procedure: as §1, §2
Linear and nonlinear regression fits of the experimental data to the equations were performed with KaleidaGraph software.

[3] = molecular target: human recombinant Caspase-1 (Homo sapiens, UniProt P29466); assay: Additional enzyme kinetics, Caspase-1; conditions: concentrations up to 10 µM
Sequence of human recombinant Caspase-1 (P29466 120-297 limits assumed): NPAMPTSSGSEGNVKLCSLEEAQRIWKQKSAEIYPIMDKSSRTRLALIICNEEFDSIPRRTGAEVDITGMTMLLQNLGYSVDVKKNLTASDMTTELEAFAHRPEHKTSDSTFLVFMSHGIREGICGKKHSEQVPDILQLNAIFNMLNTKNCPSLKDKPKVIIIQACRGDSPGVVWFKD
Sequence of human recombinant Caspase-1 (P29466 317-404 limits assumed): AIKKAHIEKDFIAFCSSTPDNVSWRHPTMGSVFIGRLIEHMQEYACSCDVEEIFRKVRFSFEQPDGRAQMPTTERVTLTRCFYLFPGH
Procedure: The human active recombinant Caspase-3 (#707-C3) was purchased from R&D Systems (Minneapolis, USA). […] Stock solutions were stored at −80 °C. […] Caspase inhibitors were solubilized in DMSO at 10 mM and stored at −80 °C.
Initial velocity (V0) was determined from the linear portion of the progress curve. The composition of the activity buffer was: 20 mM HEPES, pH 7.4; 0.1% CHAPS, 5 mM DTT, 2 mM EDTA; 800 mM sodium succinate for Caspase-2 (0.2 nM) with 25 µM of Ac-VDVAD-7-amino-3-methylcoumarin (AMC) and 20 mM HEPES, pH 7.4; 0.1% CHAPS, 5 mM DTT, 2 mM EDTA; supplemented with 1 mg/mL of stabilizing agent bovine serum albumin (BSA) for Caspase-3 (0.1 nM) with 10 μM of Ac-DEVD-AMC. Compounds (0.001–100 µM) were tested in duplicate for each inhibitor concentration to detect their inhibitory potential. Enzymes and compounds were incubated for 30 min before initiating enzymatic reaction by adding substrate. Initial rates determined in control experiments (V0) were considered as 100% of the caspase activity; initial rates that were below 100% in the presence of tested compound (Vi) were considered as inhibition. The inhibitory activity of compounds was expressed as IC50 (Inhibitor concentration giving 50% inhibition). The values of IC50 were calculated by fitting the experimental data using Mars data Analysis 2.0 and KaleidaGraph software.1 %Inhibition=1001−Vi/V0=100I0/IC50+I0

[4] = system: Molt4 lymphoid human cells; assay: Panobistat (LBH589)-induced cell death in Molt4 cells (propidium iodide, flow cytometry); type: cell-based; conditions: Molt4, 1 h pretreatment (30 µM or indicated doses), 25 nM LBH589 24 h
Procedure: HeLa cells (obtained from ATCC) were cultured in Dulbecco’s Modified Eagle Medium (DMEM, High Glucose, GlutaMAX™, Pyruvate) supplemented with antibiotics and 10% fetal calf serum (FCS) (Gibco, Life Technologies) and maintained in T75 Flasks at 1 × 10^6 cells per flask. Twenty-four hours before treatments, HeLa cells were transferred to 6-well plates (8 × 10^4 cells/well). The lymphoblastoid cell line Molt4cl8 was a gift from Dr. Bernard Krust (Inserm, University Paris 5) and was cultured in RPMI 1640 Glutamax medium supplemented with Hepes, antibiotics, and 10% FCS. HEK293 cells were obtained from ATCC (CRL-1573) and cultured in DMEM with Glutamax and 25 mM glucose (Life Technologies) supplemented with 10% FCS and antibiotics. For cell death induction, the following agents were added to cell cultures: Vincristine (Sigma) and Panobistat (LBH589; Selleck). Cell death was analyzed using fluorescence microscopy (Axio-observer Z1, Zeiss; equipped with CCD camera CoolsnapHQ2, Ropert Scientific) and cytofluorometry (MACSQuant® VYB; Miltenyi Biotec, Bergisch Gladbach, Germany) after labeling with propidium iodide (1 µg/mL; 10 min; 37 °C; Life Technologies) and Hoechst 33342 (1 µg/mL; 5 min; RT; Sigma).
Fig. 5 LJ2 inhibits cell death induced by microtubule destabilization and hydroxamic acid-based deacetylase (HDAC) inhibition. a Effect of the irreversible Caspase-2 inhibitors LJ2 against vincristine-induced cell death. HeLa cells were pretreated for 1 h with the indicated doses of LJ2, Q-VD-OPh, or Q-LETD-OPh, then treated with vincristine (VCR) as in Fig. 2, then incubated with propidium iodide at 2 μg/mL for 10 min and analyzed by flow cytometry. […] Molt4 lymphoid human cells where were pretreated for 1 h with 30 µM of LJ2, Q-VD-OPh, or Belnacasan (VX-765), then treated for 24 h with 25 nM of LBH589, then incubated with propidium iodide as in (a) and analyzed by flow cytometry. […] Molt4 cells were treated as in (b) with the indicated doses of LJ2 or Q-VD-OPh and analyzed by flow cytometry. […]

[5] = irreversible inhibitors, progress curve method

CC(C)[C@H](NC(=O)c1ccc2ccccc2n1)C(=O)N[C@@H](CC(=O)O)C(=O)N[C@H](C(=O)N1CC[C@H](CC(C)(C)C)[C@@H]1C(=O)NC(CC(=O)O)C(=O)COc1c(F)cccc1F)C(C)C (stereo partly shown) [LJ3a]
selectivity: inactivation rate (k3/Ki) on Casp2 as compared to Casp3 [1]: ~1000 times and 946 times
Casp2 k3 [1, 5]: 5 ± 7 × 10^−4 ms^−1
Casp2 k3/KI [1, 5]: 1,708,996 M^−1 s^−1
Ki ([1]; irreversible inhibitors, progress curve method, read-out: Casp2 KI): 2.8 ± 0.8 nM
Casp3 k3 [2]: 0.7 ± 9 × 10^−5 ms^−1
Casp3 k3/KI [2]: 1807 M⁻¹ s⁻¹
Ki ([2]; read-out: Casp3 KI): 400 ± 93.3 nM
effect on Caspase-1 [3]: very limited or no effect

Cc1ccc2c(c1)CCN(C(=O)[C@@H](NC(=O)[C@H](CC(=O)O)NC(=O)[C@@H](NC(=O)c1ccc3ccccc3n1)C(C)C)C(C)C)C2C(=O)NC(CC(=O)O)C(=O)COc1c(F)cccc1F (stereo partly drawn) [LJ2, Quinolin-2-carbonyl-VDV-(methyl-isoquinolyl)-D-CH2-O(2,6F2)Ph] (Quinaldoyl-VDV[ξTHIQ1CO(6-Me)]-X1)
selectivity: inactivation rate (k3/Ki) on Casp2 as compared to Casp3 [1]: 25 times and ~ 25 times
Casp2 k3 [1, 5]: 4,91 ms^−1
Casp2 k3/KI [1, 5]: ~ 1,322,875 M^−1 s^−1 and 1 322 875 M^−1 s^−1 and ~ 1,300,000 M^−1 s^−1
KI (inactivation) [1, 5]: 3.68 nM
Casp3 k3 [2]: 2,37 ms^−1
Casp3 k3/KI [2]: 51,992 M^−1 s^−1 and 51 992 M^−1 s^−1
KI (inactivation) [2]: 47 nM
effect against Panobistat (LBH589)-induced cell death [4]: dose-dependent inhibition of cell death

From PMC9666555, “Genuine selective caspase-2 inhibition with new irreversible small peptidomimetics” (Cell Death & Disease, 2022)
